Results from PMC7555119, “Characterization of Novel Synthetic Polyphenols: Validation of Antioxidant and Vasculoprotective Activities” (Antioxidants, 2020).
Converted amounts (≈) assume the structure as drawn. Where two headings read alike, the source gives them in different places.

Experiments:
[1] = Oxygen radical absorbance capacity (ORAC) assay
Experimental: The ORAC assay was performed following Ou et al., as modified by Garcés-Rimón et al.. All samples and reagents were dissolved in phosphate buffer (75 mM; pH 7.4). […] The fluorescence was recorded at 40 °C every 55 s for 95 min using a fluorimeter (SpectraMax M2; Molecular Devices, California, USA), with excitation and emission wavelengths of 480 and 520 nm, respectively. All samples were tested in triplicate. ORAC values were expressed as μmol of Trolox equivalents (TE)/μmol of pure compound.

[2] = Stability in aqueous media (H2O/acetonitrile 80:20, HPLC-MS); type: physicochemical; conditions: for Aqueous Stability (%): remaining pure compound (HPLC) after two months at room temperature in aqueous solution (+20% acetonitrile); for stability in aqueous media: H2O/acetonitrile (80:20%), room temperature, checked for 60 days
Source text: The solutions were checked by HPLC-MS at regular intervals of time for 60 days. […] The rest of the compounds suffered progressive degradation, with complete disappearance from the solution after 10 or 20 days. The most unstable polyphenol derivatives were 4 and 10 (Figure S1), having both two p-dihydroxy substitutions in the phenyl rings, which points to the rapid and easy oxidation to the p-hydroquinone. From the four compounds with three phenyl rings, only one was stable in aqueous solution (17).

[3] = ABTS radical cation scavenging assay
Experimental: The 2,2′-azino-bis (3-ethylbenzothiazoline-6-sulfonic acid) diammonium salt (ABTS) assay was performed according to Re et al. and modified by Oki et al. for its use in microplates. Samples were diluted in methanol. An ABTS^•+ stock solution was prepared by adding 44 μL of potassium persulfate (140 mmol/L) to a 2.5 mL ABTS^•+ aqueous solution (7 mmol/L). The working solution of the radical ABTS^+ was prepared by diluting the stock solution 1:75 (v/v) in a sodium phosphate buffer (5 mmol/L, pH 7.4) to obtain an absorbance value of 0.7±0.02 at 734 nm. Samples (30 μL) were added to 270 μL of the working solution of ABTS^•+ in a microplate. Absorbance was measured at 734 nm and 30 °C for 20 min, every 5 min in a Synergy HT plate spectrophotometer (Biotek Instruments, Winoosky, VT, USA). A calibration curve was made with Trolox (20–250 μM). All samples were analyzed in triplicate. Results were expressed in μmol TE/μmol of pure compound, as for the ORAC assays.

[4] = Aqueous thermodynamic solubility in H2O (UV); type: physicochemical; conditions: water, thermodynamic from solid
Source text: 4) Log P and aqueous solubility of selected compounds.
Table S2. Theoretical Log P values and aqueous thermodynamic solubility measured for
Comp `Chemical Structure MW LogP Calc Aqueous Solubility a
a Thermodynamic solubility in H 2O (UV). […]

[5] = tested on: Saccharomyces cerevisiae strain BY4741; assay: In vivo antioxidant capacity in stressed yeasts (growth recovery, survivors); type: cell-based
Experimental: Saccharomyces cerevisiae haploid strain BY4741 was used as described previously. Briefly, 20 μL of glycerol stock culture was revived in 5ml of YPD medium (1% yeast extract, 2% bacteriological peptone and 2% dextrose) at 28 °C, with shaking (210 rpm). Fifty microliters of 20-h-old culture was used to inoculate fresh 5ml YPD (control medium) or 5 mL of oxidative stress medium (YPOxD: YPOxD; 1% yeast extract, 2% bacteriological peptone, 1% dextrose and 3% H2O2). Stress (and control) was conducted during 16h at 28 °C, with shaking (220 rpm).
Growth rate was determined from growth kinetics using the BioScreen C plate-reader system (OY Growth Curves Ab Ldt., Helsinki, Finland). Stressed yeast cultures (16 h old) were used to inoculate 200 µl of fresh media to an initial OD595 of 0.05–0.07, being distributed in 100-well honeycomb plates (Oy Growth Curves) in triplicate per each condition (each different dose of each compound). Plates were then incubated at 28 °C for 72h, with shaking (High force), taking OD measurement each 15 min in the Bioscreen C. Maximum growth rate (μmax) and biomass production (carrying capacity) were determined in R using ‘Growthcurver’ package version 0.3 [24]. Growth curves were constructed in EXCEL, represented as mean ± SEM (standard error of mean). […] In addition, to measure survival after oxidative stress and antioxidant effectiveness of each compound, yeast cells from each challenge were serially diluted in 96-well plates, and each dilution was spotted (with a 8 × 6 stainless steel replica platter from SIGMA) in triplicate to determine viable colonies after 24–48 h at 28 °C. Survivors (mean ± SEM) were compared between treatments with one-way ANOVA, Fisher’s LSD test, with alpha at 0.05 for significance.

SMILES | melting point | Aqueous Stability (%) [2] | ORAC [1] | other results
O=C(Cc1ccc(O)cc1O)Nc1cc(O)ccc1O [Compound 2, 2-(2′,4′-Dihydroxyphenyl)-N-(2,5-dihydroxyphenyl)acetamide] | – | – | 8.1 ± 0.1 µmol of trolox/µmol of pure compound | –
O=C(Cc1cc(O)ccc1O)Nc1cc(O)ccc1O [Compound 4, N-(2,5-Dihydroxyphenyl)-2-(2′,5′-dihydroxyphenyl)acetamide] | 204 to 207 °C (dec.) | 0% | 14.4 ± 0.2 µmol of trolox/µmol of pure compound | stability in aqueous media [2]: most unstable
Oc1cc(O)c2c(c1)O[C@H](c1ccc(O)c(O)c1)[C@H](O)C2 [(-)-Epicatechin, reference compound] | – | – | 10.03 ± 5.92 µmol of trolox/µmol of pure co | ABTS [3]: 5.90 ± 0.73 µmol of trolox/µmol of pure co
O=C(Nc1ccc(O)cc1)Nc1ccc(O)cc1 [Compound 15, N,N′-bis(4-Hydroxyphenyl)urea] | 245 °C | 90% | 8.9 ± 0.4 µmol of trolox/µmol of pure compound | solubility [4]: 62.6 ± 0.1 µg/mL (≈ 256 µM); ABTS [3]: 1.17 ± 0.01 µmol of trolox/µmol of pure compound; stability in aqueous media [2]: sufficiently stable; growth rate (r) recovery of stressed yeast ([5]; H2O2-stressed BY4741, doses 2, 20 and 40 μg): dose-related antioxidant effect; carrying capacity (k) recovery of stressed yeast ([5]; H2O2-stressed BY4741, each dose tested): able to recover the carrying capacity of yeast cells similarly as control antioxidants; carrying capacity (k) recovery of stressed yeast, 2 μg dose ([5]; low 2 μg dose): slightly better than the other two polyphenols and resveratrol
OCCc1ccc(O)c(O)c1 [Hydroxytyrosol, reference compound] | – | – | 6.33 ± 0.08 µmol of trolox/µmol of pure co | ABTS [3]: 0.97 ± 0.05 µmol of trolox/µmol of pure co
O=C(Cc1cc(O)ccc1O)Nc1ccc(O)c(O)c1 [Compound 6, 2-(2′,5′-Dihydroxyphenyl)-N-(3,4-dihydroxyphenyl)acetamide] | 180 °C (dec.) | 0% | 9.4 ± 0.4 µmol of trolox/µmol of pure compound | –
Oc1cc(O)c2c(c1)OC(c1ccc(O)c(O)c1)C(O)C2 [D-Catechin, reference compound] | – | – | 8.59 ± 0.84 µmol of trolox/µmol of pure co | ABTS [3]: 3.17 ± 1.22 µmol of trolox/µmol of pure co
O=c1c(O)c(-c2ccc(O)c(O)c2)oc2cc(O)cc(O)c12 [Quercetin, reference compound] | – | – | 6.61 ± 0.27 µmol of trolox/µmol of pure co | ABTS [3]: 5.28 ± 0.29 µmol of trolox/µmol of pure co
O=C(Cc1cc(O)ccc1O)Nc1ccc(O)cc1O [Compound 1, N-(2,4-Dihydroxyphenyl)-2-(2′,5′-dihydroxyphenyl)acetamide] | 178 to 180 °C | 2% | 11.0 ± 0.4 µmol of trolox/µmol of pure compound | –
O=C(Cc1ccc(O)cc1O)Nc1ccc(O)cc1O [Compound 5, N-(2,4-Dihydroxyphenyl)-2-(2′,4′-dihydroxyphenyl)acetamide] | 75 to 78 °C | – | 5.2 ± 0.4 µmol of trolox/µmol of pure compound | –

Now from value to molecule, other results behind:

melting point | Aqueous Stability (%) [2] | SMILES | ORAC [1] | other results
141 to 143 °C | – | O=C(Nc1ccc(O)c(O)c1)Nc1cc(O)ccc1O [Compound 13, N-(2,5-Dihydroxyphenyl)-N′-(3′,4′-dihydroxyphenyl)urea] | 7.8 ± 0.3 µmol of trolox/µmol of pure compound | –
109 °C (dec.) | 0% | O=C(Nc1cc(O)ccc1O)Nc1cc(O)ccc1O [Compound 16, N,N′-bis(2,5-Dihydroxyphenyl)urea] | 11.9 ± 0.4 µmol of trolox/µmol of pure compound | –
> 155 °C (dec.) | – | O=C(Nc1ccc(O)cc1O)Nc1cc(O)ccc1O [Compound 11, N-(2,4-Dihydroxyphenyl)-N′-(2′,5′-dihydroxyphenyl)urea] | 6.6 ± 0.1 µmol of trolox/µmol of pure compound | –
114 to 115 °C | 0% | O=C(Nc1cc(O)ccc1O)N(Cc1cc(O)ccc1O)c1ccc(O)cc1 [Compound 18, N-(2′,5′-Dihydroxybenzyl)-N′-(2″,5″-dihydroxiphenyl)-N-(4-hydroxyphenyl)urea] | 15.3 ± 0.7 µmol of trolox/µmol of pure compound | –
184 to 187 °C | 0% | O=C(Nc1ccc(O)cc1)Nc1ccc(O)c(O)c1 [Compound 14, N-(3,4-Dihydroxyphenyl)-N′-(4′-hydroxyphenyl)urea] | 9.6 ± 0.1 µmol of trolox/µmol of pure compound | –
180 to 182 °C | 0% | O=C(Nc1ccc(O)cc1)Nc1cc(O)ccc1O [Compound 12, N-(2,5-Dihydroxyphenyl)-N′-(4′-hydroxyphenyl)urea] | 12.5 ± 0.7 µmol of trolox/µmol of pure compound | –
114 to 116 °C | 0% | O=C(Cc1cc(O)ccc1O)N(Cc1cc(O)ccc1O)c1ccc(O)cc1 [Compound 10, N-(2′,5′-Dihydroxybenzyl)-2-(2″,5″-dihydroxyphenyl)-N-(4-hydroxyphenyl) acetamide] | 27.6 ± 0.5 µmol of trolox/µmol of pure compound | ORAC ([1]; TE: Trolox Equivalents): above 25 TE; stability in aqueous media [2]: most unstable
124 to 126 °C | 0% | O=C(Cc1cc(O)ccc1O)N(c1ccc(O)cc1)c1ccc(O)cc1 [Compound 9, 2-(2′,5′-Dihydroxyphenyl)-N,N-bis(4-hydroxyphenyl)acetamide] | 29.5 ± 0.5 µmol of trolox/µmol of pure compound | ORAC ([1]; TE: Trolox Equivalents): above 25 TE
